In patent US20250115620A1, “BRIDGED TRICYCLIC CARBAMOYLPYRIDONE COMPOUNDS AND USES THEREOF” (Gilead Sciences, Inc., priority 2022, published 2025):
Like-named read-outs stand apart in the source and are kept apart here.

Columns and labels:
[1] = tested on: pLAI reporter virus; experiment: microbe, parasite or virus in culture; type: cell-based, HIV
[2] = tested on: HIV-1 (IIIB); experiment: microbe, parasite or virus in culture; type: cell-based; conditions: HIV-1 (IIIB) in MT-4 cells, 5 days incubation, Cell Titer Glo, read-out: MT4 EC50
[3] = in vitro; conditions: human, uninfected MT-4 cells
[4] = tested on: G140S/Q148R; experiment: HIV double mutant assay in MT-4 cells; type: cell-based; conditions: G140S/Q148R vs wild type HXB2, MT-4 cells, 5 day incubation
Description: (§1) The HIV double mutant assay assesses the changes in efficacy of antiviral compounds against viral mutants compared to wild type. Each of the three mutant virus strains in this panel contain two amino acid substitutions ([…], E138K/Q148K and E92Q/N155H) of the parental HXB2. Test compounds and controls were serially diluted and spotted in replicates into 384 well black assay plates using acoustic transfer (Echo). Replicate sets of plates were made for each strain. MT-4 cells were grown in batch, centrifuged and resuspended in fresh CCM media (RPMI w/10% FBS, 1% PS) at 2×10^6 cells/ml. Cells were batch infected with each mutant strain at optimized volumes (currently HXB2 25 ul/ml; […], E138K/Q148K and E92Q/N155H at 40 ul/ml cells). The size of each infection mix was based on number of sample plates to be tested. Each infection mix was transferred into 5 ml closed tubes and nutated rapidly on a shaker at 37 deg. incubator for 1 hour. The infection mixes were then diluted 25× in fresh CCM media then added to assay plates at 40 ul per well using a Viaflo 384 pipettor. After 5 day incubation at 37 degrees in a CO2 incubator, assay plates were processed with Cell-titer glo reagent using a ViaFlo 384 with an addition/mixing program. Plates were read immediately on Envision reader. Assay signals were plotted and dose response curves generated to determine individual compound EC50s. The effect of each mutation was assessed by comparing EC50s of wild type and mutant strains.

[5] = tested on: E92Q/N155H; experiment: HIV double mutant assay in MT-4 cells; type: cell-based; conditions: E92Q/N155H vs wild type HXB2, MT-4 cells, 5 day incubation
Description: as §1

[6] = tested on: E138K/Q148K; experiment: HIV double mutant assay in MT-4 cells; type: cell-based; conditions: E138K/Q148K vs wild type HXB2, MT-4 cells, 5 day incubation
Description: as §1

[7] = Half life, PK in monkeys after intravenous infusion; type: in vivo; conditions: cynomolgus, monkey, single-dose intravenous infusion for 30 minutes, plasma, read-out: Cyno half-life (converted)
Description: Test compound PK was determined in monkeys (Labcorp, Madison, WI) following a single-dose intravenous infusion for 30 minutes. The dosing vehicle was a mixture of N-methylpyrrolidone, polyethylene glycol 300, and water for intravenous administration in monkeys. […] Nonclinical plasma samples were prepared by addition of 200 μl cold acetonitrile/internal standard solution to 96-well plates containing 50 μl aliquots of each plasma sample. After protein precipitation, each of the supernatants (50 μl) were transferred to clean 96-well plates and diluted with 450 μl of water. The sample injection volume was 2 μl. Samples were analyzed by a multiple reaction monitoring LC-MS/MS method. […] Thermo Fisher Scientific), and the ABSciex QTRAP5500 Mass Spectrometer LC-MS/MS system. […] The following plasma PK parameters were estimated in nonclinical species (as appropriate): observed peak plasma concentration (Cmax), time to reach Cmax (Tmax), last quantifiable plasma concentration (Clast), t1/2, time of Clast (Tlast), area under the plasma concentration-time curve (AUC) from time 0 [NT], AUC from time 0 to infinity (AUCinf), CL, mean residence time (MRT), and volume of distribution at steady state (Vss).

[8] = tested on: MT-4 cells; experiment: Cytotoxicity assay in MT-4 cells; conditions: uninfected MT-4 cells
[9] = Human immunodeficiency virus 1, MT4, 72 h, read-out: RLUC 50% HS EC50
[10] = Human immunodeficiency virus 1, MT4, 72 h, read-out: RLUC CCM EC50
[11] = Human immunodeficiency virus 1, IIIB, MT4, 120 h

Compound | EC50 [1, 9] [nM] | EC50 [1, 10] [nM] | EC50 [2, 11] [nM] | CC50 at 5 days [3] [nM] | Double Mutant Shift (fold over wild type) [4] [×] | Double Mutant Shift (fold over wild type) [5] [×] | Double Mutant Shift (fold over wild type) [6] [×] | half-life [7] [h] | EC50 ([1]; read-out: RLUC CCM EC50) [nM] | EC50 [2] [nM] | CC50 [8] [nM] | EC50 ([1]; CCM media (RPMI/10% FBS), MT-4 cells, 3 days, read-out: RLUC CCM EC50) [nM] | EC50 ([1]; read-out: RLUC 50% HS EC50, 50% human serum media, MT-4 cells, 3 days) [nM]
COC1=NO[C@@]2(CC[C@H](C)N3C[C@H]2n2cc(C(=O)NCc4ccc(F)cc4F)c(=O)c(O)c2C3=O)C1 [Example 40, (3′S,5S,7′R)—N-(2,4-difluorobenzyl)-12′-hydroxy-3-methoxy-3′-methyl-1′,11′-dioxo-1′,4′,5′,11′-tetrahydro-3′H,4H,7′H-spiro[isoxazole-5,6′-[2,7]methanopyrido[1,2-a][1,4]diazonine]-10′-carboxamide] | 22.5 | 0.2 | 0.8 | 34100 | 5 | 1 | 4 | 12 |  |  |  |  | 
CC1=NN(c2ccccc2)C2(CC[C@H](C)N3C[C@H]2n2cc(C(=O)NCc4c(F)cc(F)cc4F)c(=O)c(O)c2C3=O)C1 (single isomer, unassigned) [Example 90, (3′S,7′R)-12′-hydroxy-3′,5-dimethyl-1′,11′-dioxo-2-phenyl-N-(2,4,6-trifluorobenzyl)-1′,2,4,4′,5′,11′-hexahydro-3′H,7′H-spiro[pyrazole-3,6′-[2,7]methanopyrido[1,2-a][1,4]diazonine]-10′-carboxamide] |  | 1.3 | 4.3 | 22300 |  |  |  |  | 1.2 | 3.2 | 20000 |  | 
CC1=NO[C@@]2(CC[C@H](C)N3C[C@H]2n2cc(C(=O)NCc4ccc(F)cc4F)c(=O)c(O)c2C3=O)C1 [Example 1, (3'S,5S,7′R)—N-(2,4-difluorobenzyl)-12′-hydroxy-3,3′-dimethyl-1′,11′-dioxo-1′,4′,5′,11′-tetrahydro-3′H,4H,7′H-spiro[isoxazole-5,6′-[2,7]methanopyrido[1,2-a][1,4]diazonine]-10′-carboxamide] | 92 | 0.3 | 0.8 | 20400 | 4 | 1 | 3 | 29 | 0.25 |  |  |  | 
(3′S,5S,7′R)—N-((2,4-difluorophenyl)methyl-d2)-12′-hydroxy-3,3′-dimethyl-1′,11′-dioxo-1′,4′,5′,11′-tetrahydro-3′H,4H,7′H-spiro[isoxazole-5,6′-[2,7]methanopyrido[1,2-a][1,4]diazonine]-10′-carboxamide-N′-^15N [Example 151] |  |  |  |  |  |  |  |  |  | 1.8 | 13800 | 0.3 | 69.2
O=C(NCc1ccc(F)cc1F)c1cn2c(c(O)c1=O)C(=O)N1CCCC[C@H]2C1 [Reference Compound B] | 1.1 | 0.28 | 1.5 |  | 12 | 3 | 18 | 5 |  |  |  |  | 
O=C(NCc1ccc(F)cc1F)c1cn2c(c(O)c1=O)C(=O)N1CCCC3(CC3)[C@H]2C1 [Reference Compound C, reference compound] | 2 | 0.25 | 1.2 |  | 5 | 2 | 3 |  |  |  |  |  | 
C[C@H]1CCC[C@H]2CN1C(=O)c1c(O)c(=O)c(C(=O)NCc3ccc(F)cc3F)cn12 [Reference Compound D] | 7.5 | 0.22 | 1.3 |  | 5 | 1 | 6 | 3 |  |  |  |  | 
O=C(NCc1c(F)cc(F)cc1F)c1cn2c(c(O)c1=O)C(=O)N1CCCC[C@H]2C1 [Reference Compound A] | 2 | 0.35 | 1.1 |  | 10 | 2 | 13 | 3 |  |  |  |  | 
COC[C@@H]1CO[C@@]2(CC[C@H](C)N3C[C@H]2n2cc(C(=O)NCc4c(F)cc(F)cc4F)c(=O)c(O)c2C3=O)O1 (single isomer, unassigned) [168 (peak 1)] | 2 | 0.4 | 1.1 | 28900 |  |  |  |  |  |  |  |  | 
